For the assay, the target named is human Siglec-9 (hSiglec-9-Fc, hSiglec-9) (Homo sapiens, UniProt Q9Y336). The experiment in a line: glycan microarray, fluorescence. It is filed as binding. The following applies: glycan immobilised on epoxide slide; PBS pH 7.4, RT, 2 h.

These results are taken from article PMC5704959 (ACS chemical biology, 2016).

Sequence of human Siglec-9 (hSiglec-9-Fc, hSiglec-9) (Q9Y336 18-348 limits assumed): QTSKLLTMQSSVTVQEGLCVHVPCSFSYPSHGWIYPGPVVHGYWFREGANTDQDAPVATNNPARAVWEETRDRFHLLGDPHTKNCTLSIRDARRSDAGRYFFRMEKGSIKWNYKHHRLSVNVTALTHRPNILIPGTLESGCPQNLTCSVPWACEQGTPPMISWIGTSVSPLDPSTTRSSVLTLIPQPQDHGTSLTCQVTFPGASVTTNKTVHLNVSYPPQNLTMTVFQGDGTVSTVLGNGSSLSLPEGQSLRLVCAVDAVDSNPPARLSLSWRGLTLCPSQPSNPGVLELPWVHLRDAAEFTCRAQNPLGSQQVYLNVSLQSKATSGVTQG

On to `CC(=O)N[C@H]1[C@H]([C@H](O)[C@H](O)COC(C)=O)O[C@@](O[C@H]2[C@@H](O)[C@@H](CO)O[C@@H](O[C@H]3[C@H](O)[C@@H](O)[C@H](OCCCN)O[C@@H]3CO)[C@@H]2O)(C(=O)O)C[C@@H]1O` [Neu5,9Ac2α3Galβ4GlcβProNH2], for which the “glycan microarray, fluorescence (RFU)” value is “observable binding to both Neu5Ac9NAc (black column) and Neu5,9Ac2 (grey column)-containing glycans”.
For the molecule `CC(=O)N[C@H]1[C@H]([C@H](O)[C@H](O)CO)O[C@@](O[C@H]2[C@@H](O)[C@@H](CO)O[C@@H](O[C@H]3[C@H](O)[C@@H](O)[C@H](OCCCN)O[C@@H]3CO)[C@@H]2O)(C(=O)O)C[C@@H]1O` [Neu5Acα3Galβ4GlcβProNH2], the “glycan microarray, fluorescence (RFU)” value is reported as “hSiglec-9 prefers binding to Neu5Ac-glycan without 9-modification at sialic acid”.
